Test results: patent publication US20260078103A1, “ISOQUINOLONES AS PI3K INHIBITORS” (OnKure, Inc., priority 2022, published 2026)
Read-outs that look alike come from different tables or passages of the source.

Tests used:
Type in all cases: cell-based
[1] = test system: T47D cells expressing mutant PI3Ka (H1047R); assay: In vitro cell proliferation, T47D cells (CellTiter-Glo); settings: inhibition of proliferation, read-out: Avg T-47D EC50
Procedure, shortened: (§1)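 Proliferation was read by CellTiter-Glo luminescence after 72 h of exposure to 10-point compound dilutions at 37 °C and 5% CO2. T47D (RPMI, 10% FBS, insulin 0.2 units/mL) and SKBR3 (McCoys 5a, 10% FBS) cells were seeded at 1,500 cells/well. EC50 was fitted from inhibition relative to DMSO and 10 uM Alpelisib.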

[2] = test system: SKBR3 cells express WT PI3Ka; assay: In vitro cell proliferation, SKBR3 cells (CellTiter-Glo); settings: inhibition of proliferation
Procedure, shortened: as §1

[3] = test system: phosphorylation of AKT (pAKT) in T47D cells expressing mutant PI3Ka (H1047R); assay: In vitro cell pAKT (Ser473) HTRF, T47D cells; settings: cellular pAKT, T47D cells, mutant PI3Ka (H1047R), 6 hours, read-out: Avg T-47D IC50
Procedure, shortened: (§2)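 pAKT (Ser473) was quantified by HTRF in lysates from cells exposed 6 h at 37 °C to 10-point compound series, with T47D in insulin-supplemented RPMI/10% FBS and SKBR3 in McCoy's 5a/10% FBS. Controls: 0.1% DMSO (high) and 10 uM alpelisib (low). IC50 from sigmoidal curve fitting.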

[4] = test system: phosphorylation of AKT (pAKT) in SKBR3 cells express WT PI3Ka; assay: In vitro cell pAKT (Ser473) HTRF, SKBR3 cells; settings: cellular pAKT
Procedure, shortened: as §2

SMILES | EC50 ([1]; 72 hours) [nM] | EC50 ([2]; Homo sapiens, SK-BR-3, 72 h) [nM] | IC50 [3] [nM] | IC50 ([4]; Homo sapiens, SK-BR-3, 6 h) [nM] | EC50 ([2]; 72 hours) [nM] | IC50 ([4]; 6 hours) [nM] | IC50 ([3]; Homo sapiens, T47D, 6 h) [nM] | EC50 ([1]; Homo sapiens, T47D, 72 h) [nM]
Cc1cc([C@@H](C)Nc2cccc(F)c2C(=O)O)c2cc(C3CC3(F)F)n(C)c(=O)c2c1 (single isomer, unassigned) [Example 420] | 2000 to 15000 | > 15000 | 2000 to 15000 | > 15000 |  |  |  | 
Cc1cc([C@@H](C)Nc2cccc(F)c2C(=O)O)c2cc(C3CC3(F)F)n(C)c(=O)c2c1 (single isomer, unassigned) [Example 421] | 500 to 2000 |  | 1 to 500 |  | > 15000 | > 15000 |  | 
C[C@@H](Nc1cccc(F)c1C(=O)O)c1cc(F)cc2c(=O)n(C)c(C3C[C@@H]3C3CC3)cc12 (single isomer, unassigned) [Example 425] | 500 to 2000 | > 15000 |  | > 15000 |  |  | 1 to 500 | 
C[C@@H](Nc1cccc(F)c1C(=O)O)c1cc(F)cc2c(=O)n(C)c(C3C[C@@H]3C3CC3)cc12 (single isomer, unassigned) [Example 426] | 1 to 500 |  | 1 to 500 |  | > 15000 | > 15000 |  | 
C[C@@H](Nc1cccc(F)c1C(=O)O)c1cc(F)cc2c(=O)n(C)c(C3C[C@@H]3C(F)(F)F)cc12 (single isomer, unassigned) [Example 427] |  | > 15000 |  | > 15000 |  |  | 1 to 500 | 500 to 2000
C[C@@H](Nc1cccc(F)c1C(=O)O)c1cc(F)cc2c(=O)n(C)c(C3C[C@@H]3C(F)(F)F)cc12 (single isomer, unassigned) [Example 428] | 500 to 2000 |  | 1 to 500 |  | > 15000 | > 15000 |  | 
C[C@@H](Nc1ccccc1C(=O)O)c1cc(F)cc2c(=O)n(C)c(C3C[C@@H]3C3CC3)cc12 (single isomer, unassigned) [Example 449] |  | > 15000 |  | > 15000 |  |  | 1 to 500 | 1 to 500
C[C@@H](Nc1ccccc1C(=O)O)c1cc(F)cc2c(=O)n(C)c(C3C[C@@H]3C3CC3)cc12 (single isomer, unassigned) [Example 450] | 1 to 500 |  | 1 to 500 |  | > 15000 | > 15000 |  | 
C[C@@H](Nc1ccccc1C(=O)O)c1cc(F)cc2c(=O)n(C)c(C3C[C@@H]3C(F)(F)F)cc12 (single isomer, unassigned) [Example 451] |  | > 15000 |  | > 15000 |  |  | 1 to 500 | 1 to 500
C[C@@H](Nc1ccccc1C(=O)O)c1cc(F)cc2c(=O)n(C)c(C3C[C@@H]3C(F)(F)F)cc12 (single isomer, unassigned) [Example 452] | 1 to 500 |  | 1 to 500 |  | > 15000 | > 15000 |  | 
C[C@@H](Nc1cccc(F)c1C(=O)O)c1cc(F)cc2c(=O)n(C)c(C3C[C@@H]3C(F)F)cc12 (single isomer, unassigned) [Example 475] |  | > 15000 |  | > 15000 |  |  | 1 to 500 | 500 to 2000
C[C@@H](Nc1cccc(F)c1C(=O)O)c1cc(F)cc2c(=O)n(C)c(C3C[C@@H]3C(F)F)cc12 (single isomer, unassigned) [Example 476] | 500 to 2000 |  | 1 to 500 |  | > 15000 | > 15000 |  | 
C[C@@H](Nc1cccc(F)c1C(=O)O)c1cc(F)cc2c(=O)n(C)c(C3CC3(F)F)cc12 (single isomer, unassigned) [Example 479] | 2000 to 15000 | > 15000 | 2000 to 15000 | > 15000 |  |  |  | 
C[C@@H](Nc1cccc(F)c1C(=O)O)c1cc(F)cc2c(=O)n(C)c(C3CC3(F)F)cc12 (single isomer, unassigned) [Example 480] | 500 to 2000 |  | 1 to 500 |  | > 15000 | > 15000 |  | 
C[C@@H](Nc1ccccc1C(=O)O)c1cc(F)cc2c(=O)n(C)c(C3CC3(F)F)cc12 (single isomer, unassigned) [Example 481] | 500 to 2000 | > 15000 | 500 to 2000 | > 15000 |  |  |  | 
C[C@@H](Nc1ccccc1C(=O)O)c1cc(F)cc2c(=O)n(C)c(C3CC3(F)F)cc12 (single isomer, unassigned) [Example 482] | 1 to 500 |  | 1 to 500 |  | > 15000 | > 15000 |  | 
Cc1cc(C(C)Nc2ccccc2C(=O)O)c2cc(-c3ccc(N4CCOCC4)nc3)n(C)c(=O)c2c1 (single isomer, unassigned) [Example 486] | 2000 to 15000 |  | 2000 to 15000 |  | > 15000 | > 15000 |  | 
Cc1cc(C(C)Nc2ccccc2C(=O)O)c2cc(-c3ccc(N4CCOCC4)nc3)n(C)c(=O)c2c1 (single isomer, unassigned) [Example 487] | 1 to 500 |  | 1 to 500 |  | 2000 to 15000 | 2000 to 15000 |  | 
C[C@@H](Nc1ccccc1C(=O)O)c1cc(F)cc2c(=O)n(C)c(C3C[C@@H]3C(F)F)cc12 (single isomer, unassigned) [Example 488] |  | > 15000 |  | > 15000 |  |  | 1 to 500 | 1 to 500
C[C@@H](Nc1ccccc1C(=O)O)c1cc(F)cc2c(=O)n(C)c(C3C[C@@H]3C(F)F)cc12 (single isomer, unassigned) [Example 489] | 1 to 500 |  | 1 to 500 |  | > 15000 | > 15000 |  | 
C[C@@H](Nc1ccccc1C(=O)O)c1cc(F)cc2c(=O)n(C)c(C3C[C@@H]3CF)cc12 (single isomer, unassigned) [Example 493] |  | > 15000 |  | > 15000 |  |  | 1 to 500 | 1 to 500
C[C@@H](Nc1ccccc1C(=O)O)c1cc(F)cc2c(=O)n(C)c(C3C[C@@H]3CF)cc12 (single isomer, unassigned) [Example 494] | 1 to 500 |  | 1 to 500 |  | > 15000 | > 15000 |  | 
CC(Nc1ccccc1C(=O)O)c1cc(F)cc2c(=O)n(C)c(N3C4CCC3CN(CC(F)(F)F)C4)c(F)c12 (single isomer, unassigned) [Example 566] | 2000 to 15000 | 2000 to 15000 | > 15000 |  |  | > 15000 |  | 
CC(Nc1ccccc1C(=O)O)c1cc(F)cc2c(=O)n(C)c(N3C4CCC3CN(CC(F)(F)F)C4)c(F)c12 (single isomer, unassigned) [Example 567] | 1 to 500 |  | 1 to 500 |  | 2000 to 15000 | 2000 to 15000 |  | 
CC(Nc1ccccc1C(=O)O)c1cc(F)cc2c(=O)n(C)c(N3CCN(CC(F)(F)F)CC3)c(F)c12 (single isomer, unassigned) [Example 572] | 1 to 500 | > 15000 | 1 to 500 |  |  | 2000 to 15000 |  | 
CC(Nc1ccccc1C(=O)O)c1cc(F)cc2c(=O)n(C)c(N3CCN(CC(F)(F)F)CC3)c(F)c12 (single isomer, unassigned) [Example 573] | 2000 to 15000 |  | 2000 to 15000 |  | > 15000 | > 15000 |  | 
C[C@@H](Nc1ccccc1C(=O)O)c1cc(F)cc2c(=O)n(C)c(C3C[C@@H]3CF)c(F)c12 (single isomer, unassigned) [Example 577] |  | > 15000 |  | > 15000 |  |  | 1 to 500 | 1 to 500
Cc1ccc(N[C@H](C)c2cc(F)cc3c(=O)n(C)c(C4CC4C4CC4)cc23)c(C(=O)O)n1 (stereo in doubt) [Example 45, 3-(((R)-1-(3-(trans-[1,1′-bi(cyclopropan)]-2-yl)-7-fluoro-2-methyl-1-oxo-1,2-dihydroisoquinolin-5-yl)ethyl)amino)-6-methylpicolinic acid] | 2000 to 15000 |  | 500 to 2000 |  | > 15000 | > 15000 |  | 
